In ChEMBL document CHEMBL1137616, “Poorly soluble marketed drugs display solvation limited solubility” (J Med Chem, 2007):
In brackets after ≈: the same amount, converted by molar mass.

Experiment: Solubility by shake flask method
With `CCC(C)n1ncn(-c2ccc(N3CCN(c4ccc(OCC5COC(Cn6cncn6)(c6ccc(Cl)cc6Cl)O5)cc4)CC3)cc2)c1=O` (configuration not stated) [ITRACONAZOLE] the Solubility was 0.0033 µM (≈ 0.00233 µg/mL). With `Cc1c(Cl)cccc1Nc1ccccc1C(=O)O` [TOLFENAMIC ACID] the Solubility was 0.0136 µM (≈ 0.00356 µg/mL). For `COc1ccc2c(c1)c(CC(=O)O)c(C)n2C(=O)c1ccc(Cl)cc1` [INDOMETHACIN], the Solubility was 1.1333 µM (≈ 0.405 µg/mL). Work on `CCOC(=O)C1=C(C)NC(C)=C(C(=O)OC)C1c1cccc(Cl)c1Cl` (configuration not stated) [FELODIPINE] yielded a Solubility of 0.276 µM (≈ 0.106 µg/mL). Compound `COc1ccccc1OCCNCC(O)COc1cccc2[nH]c3ccccc3c12` (configuration not stated) [CARVEDILOL] has a Solubility of 0.713 µM (≈ 0.29 µg/mL). Compound `Cc1c(C(=O)NN2CCCCC2)nn(-c2ccc(Cl)cc2Cl)c1-c1ccc(Cl)cc1` [RIMONABANT] has a Solubility of 0.0965 µM (≈ 0.0448 µg/mL). `COc1ccc(Cl)cc1C(=O)NCCc1ccc(S(=O)(=O)NC(=O)NC2CCCCC2)cc1` [GLYBURIDE] showed a Solubility of 0.0891 µM (≈ 0.044 µg/mL). Work on `CCCSc1ccc2nc(NC(=O)OC)[nH]c2c1` [ALBENDAZOLE] yielded a Solubility of 0.983 µM (≈ 0.261 µg/mL). Work on `CC(C)(C)c1ccc(C(O)CCCN2CCC(C(O)(c3ccccc3)c3ccccc3)CC2)cc1` (configuration not stated) [TERFENADINE] yielded a Solubility of 0.0116 µM (≈ 0.00547 µg/mL). In the case of `CCC1=C(C)CN(C(=O)NCCc2ccc(S(=O)(=O)NC(=O)N[C@H]3CC[C@H](C)CC3)cc2)C1=O` [GLIMEPIRIDE], the Solubility is reported as 0.0127 µM (≈ 0.00623 µg/mL). For `Cc1c(C)c2c(c(C)c1O)CCC(C)(COc1ccc(CC3SC(=O)NC3=O)cc1)O2` (configuration not stated) [TROGLITAZONE], the Solubility was less than 0.0159 µM. With `COc1ccc(CCN2CCC(Nc3nc4ccccc4n3Cc3ccc(F)cc3)CC2)cc1` [ASTEMIZOLE] the Solubility was 0.0668 µM (≈ 0.0306 µg/mL).
